Where “and” joins values, the source holds several entries; their conditions need not be identical. Identical values can stand only once.
Biological target: T1, P2X4 (Homo sapiens, UniProt Q99571)
T1 sequence (Q99571 1-388): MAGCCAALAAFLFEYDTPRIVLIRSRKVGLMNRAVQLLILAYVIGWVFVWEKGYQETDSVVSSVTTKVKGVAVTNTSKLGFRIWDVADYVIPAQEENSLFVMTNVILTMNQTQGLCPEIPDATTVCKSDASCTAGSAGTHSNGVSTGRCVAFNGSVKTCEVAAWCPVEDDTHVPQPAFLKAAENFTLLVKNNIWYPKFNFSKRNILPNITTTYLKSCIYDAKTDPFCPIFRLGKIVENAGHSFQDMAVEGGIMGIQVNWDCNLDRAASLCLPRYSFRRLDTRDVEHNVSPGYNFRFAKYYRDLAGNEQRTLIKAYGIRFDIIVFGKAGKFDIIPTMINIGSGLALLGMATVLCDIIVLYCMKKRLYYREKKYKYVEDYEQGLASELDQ
Test: Assay B: human P2X4 receptor cell line, mitochondrial photina luminescence (agonist Bz-ATP at EC50)
Assay type: cell-based
Parameters: host or cells: HEK 293 (recombinant, constitutively expressing; with mitochondrial photina in Assay B)
Conditions: HEK human P2X4 cell line, photina luminescence, agonist Bz-ATP at EC50, average; for Emax: read-out: human P2X4 Assay B avg Efficacy
Protocol: The identification of agonists and antagonists of the P2X4 receptor from humans and […] also the quantification of the activity of the compounds of the invention was performed by use of recombinant cell lines. […] The test cell lines constitutively express the mouse or human P2X4 receptors. Stimulation of the receptors with an agonist leads to a conformational change of P2X4 and influx of extracellular calcium ions through the ion channel. The cytoplasmatic calcium transient is detected via the calcium sensitive dye Fluo8 for the mouse P2×4 cell line or in case of the human P2×4 cell line a stably expressed calcium-sensitive photoprotein, mitochondrial photina, which, after reconstitution with the cofactor coelenterazine, emits light in dependence of calcium binding [Bovolenta S, Foti M, Lohmer S, Corazza S., J Biomol Screen. […] The strength of Fluo8 fluorescence signal or photina luminescence signal corresponds to the level of receptor activation. An inhibitor would decrease the signal depending on its potency and concentration.
The resulting light signal is measured immediately in the luminometer.

| IC50 | Emax [%] | human P2X4 Assay B avg Efficacy [%] | Compound |
| --- | --- | --- | --- |
| 327 nM | 93 |  | NS(=O)(=O)c1cc(NC(=O)Cc2ccccc2Cl)ccc1OCc1ccncn1 [Example 153, 2-(2-Chlorophenyl)-N-[4-(pyrimidin-4-ylmethoxy)-3-sulfamoylphenyl]acetamide] |
| 2230 nM | 77 |  | NS(=O)(=O)c1cc(NC(=O)Cc2ccccc2Cl)ccc1Oc1ccc[nH]c1=O [Example 075, 2-(2-Chlorophenyl)-N-{4-[(2-oxo-1,2-dihydropyridin-3-yl)oxy]-3-sulfamoylphenyl}acetamide] |
| 491 nM | 71 |  | COCCOc1cccc(CC(=O)Nc2ccc(Oc3cccc(Cl)c3)c(S(N)(=O)=O)c2)c1 [Example 210, N-[4-(3-Chlorophenoxy)-3-sulfamoylphenyl]-2-[3-(2-methoxyethoxy)phenyl]acetamide] |
|  | 64 |  | C[C@@H](C(=O)Nc1ccc(Oc2cccc(Cl)c2)c(S(N)(=O)=O)c1)c1ccccc1 [Example 195, (2R)—N-[4-(3-Chlorophenoxy)-3-sulfamoylphenyl]-2-phenylpropanamide] |
| 519 nM |  | 64 | CC(Oc1ccc(NC(=O)Cc2ccccc2Cl)cc1S(N)(=O)=O)c1ccccc1 (single isomer, unassigned) [Example 148B, 2-(2-Chlorophenyl)-N-[4-(1-phenylethoxy)-3-sulfamoylphenyl]acetamide] |
| 2870 nM and > 16000 nM | 71 |  | NS(=O)(=O)c1cc(NC(=O)Cc2c(Cl)cc(C(F)(F)F)cc2Cl)ccc1Oc1ccc(Cl)cc1 [Example 242, N-[4-(4-Chlorophenoxy)-3-sulfamoylphenyl]-2-[2,6-dichloro-4-(trifluoromethyl)phenyl]acetamide] |
| 3350 nM | 45 |  | NS(=O)(=O)c1cc(NC(=O)Cc2ccccc2Cl)ccc1OC1COC1 [Example 216, 2-(2-Chlorophenyl)-N-[4-(oxetan-3-yloxy)-3-sulfamoylphenyl]acetamide] |
| > 16000 nM |  |  | CN1CCC(Oc2ccc(NC(=O)Cc3ccccc3Cl)cc2S(N)(=O)=O)CC1 [Example 238, 2-(2-Chlorophenyl)-N-{4-[(1-methylpiperidin-4-yl)oxy]-3-sulfamoylphenyl}acetamide] |
|  | 74 |  | NS(=O)(=O)c1cc(NC(=O)Cc2ccccc2)ccc1Oc1ccccc1Cl [Example 076, N-[4-(2-Chlorophenoxy)-3-sulfamoylphenyl]-2-phenylacetamide] |
| 439 nM | 82 |  | COc1cccc(Oc2ccc(NC(=O)Cc3ccccc3)cc2S(N)(=O)=O)c1 [Example 250, N-[4-(3-Methoxyphenoxy)-3-sulfamoylphenyl]-2-phenylacetamide] |
| 777 nM | 74 |  | NS(=O)(=O)c1cc(NC(=O)Cc2ccccc2Cl)ccc1Oc1ncccc1Cl [Example 038, 2-(2-chlorophenyl)-N-{4-[(3-chloropyridin-2-yl)oxy]-3-sulfamoylphenyl}acetamide] |
| > 50000 nM | 23 |  | CN1CCCC(Oc2ccc(NC(=O)Cc3ccccc3)cc2S(N)(=O)=O)C1 (stereo not shown) [Example 219, N-{4-[(1-Methylpiperidin-3-yl)oxy]-3-sulfamoylphenyl}-2-phenylacetamide] |
| 4040 nM | 60 |  | NS(=O)(=O)c1cc(NC(=O)Cc2ccccc2)ccc1OC1CCC1 [Example 204, N-[4-(Cyclobutyloxy)-3-sulfamoylphenyl]-2-phenylacetamide] |
| 1420 nM | 80 |  | NS(=O)(=O)c1cc(NC(=O)Cc2ccccc2Cl)ccc1Oc1cncnc1 [Example 019, 2-(2-Chlorophenyl)-N-[4-(pyrimidin-5-yloxy)-3-sulfamoylphenyl]acetamide] |
| 166 nM | 73 |  | COc1ccc(Oc2ccc(NC(=O)Cc3ccccc3Cl)cc2S(N)(=O)=O)cc1 [Example 023, 2-(2-Chlorophenyl)-N-[4-(4-methoxyphenoxy)-3-sulfamoylphenyl]acetamide] |
| 462 nM | 97 |  | NS(=O)(=O)c1cc(NC(=O)Cc2cccc(Cl)c2)ccc1Oc1cccc(Cl)c1 [Example 186, N-[4-(3-Chlorophenoxy)-3-sulfamoylphenyl]-2-(3-chlorophenyl)acetamide] |
| 164 nM | 64 |  | NS(=O)(=O)c1cc(NC(=O)Cc2ccncc2Cl)ccc1Oc1cccc(Cl)c1 [Example 119, N-[4-(3-Chlorophenoxy)-3-sulfamoylphenyl]-2-(3-chloropyridin-4-yl)acetamide] |
| 1420 nM | 54 |  | NS(=O)(=O)c1cc(NC(=O)Cc2c(Cl)cc(C(F)(F)F)c(F)c2F)ccc1Oc1cccc(Cl)c1 [Example 115, 2-[6-Chloro-2,3-difluoro-4-(trifluoromethyl)phenyl]-N-[4-(3-chlorophenoxy)-3-sulfamoylphenyl]acetamide] |
| 10800 nM | 88 |  | NS(=O)(=O)c1cc(NC(=O)Cc2ccccc2)ccc1OC1CCOCC1 [Example 206, 2-Phenyl-N-[3-sulfamoyl-4-(tetrahydro-2H-pyran-4-yloxy)phenyl]acetamide] |
| 1590 nM | 65 |  | CC(C)c1ncc(Oc2ccc(NC(=O)Cc3ccccc3Cl)cc2S(N)(=O)=O)cn1 [Example 057, 2-(2-Chlorophenyl)-N-{4-[(2-isopropylpyrimidin-5-yl)oxy]-3-sulfamoylphenyl}acetamide] |
| 7720 nM | 61 |  | N#Cc1cc(Cl)cc(Oc2ccc(NC(=O)Cc3ccccc3Cl)cc2S(N)(=O)=O)c1 [Example 001, N-[4-(3-Chloro-5-cyanophenoxy)-3-sulfamoylphenyl]-2-(2-chlorophenyl)acetamide] |
|  | 34 |  | NS(=O)(=O)c1cc(NC(=O)Cc2ccccc2Cl)ccc1Oc1ccc(Br)cc1 [Example 060, N-[4-(4-Bromophenoxy)-3-sulfamoylphenyl]-2-(2-chlorophenyl)acetamide] |
| 235 nM | 59 |  | Cn1nccc1Oc1ccc(NC(=O)Cc2ccccc2Cl)cc1S(N)(=O)=O [Example 237, 2-(2-Chlorophenyl)-N-{4-[(1-methyl-1H-pyrazol-5-yl)oxy]-3-sulfamoylphenyl}acetamide] |
| 3810 nM | 77 |  | CN1CCCC(Oc2ccc(NC(=O)Cc3ccccc3Cl)cc2S(N)(=O)=O)C1 (stereo not shown) [Example 220, 2-(2-Chlorophenyl)-N-{4-[(1-methylpiperidin-3-yl)oxy]-3-sulfamoylphenyl}acetamide] |
| 4910 nM | 65 |  | Cc1ccccc1CC(=O)Nc1cc(F)c(Oc2cccc(Cl)c2)c(S(N)(=O)=O)c1 [Example 171, N-[4-(3-Chlorophenoxy)-3-fluoro-5-sulfamoylphenyl]-2-(2-methylphenyl)acetamide] |
| 773 nM | 92 |  | NS(=O)(=O)c1cc(NC(=O)Cc2ccccc2Cl)ccc1Oc1cccc(N2CCCCC2)c1 [Example 049, 2-(2-Chlorophenyl)-N-{4-[3-(piperidin-1-yl)phenoxy]-3-sulfamoylphenyl}acetamide] |
| 248 nM | 80 |  | NS(=O)(=O)c1cc(NC(=O)Cc2ccccc2Cl)ccc1OC1CCCC1 [Example 218, 2-(2-Chlorophenyl)-N-[4-(cyclopentyloxy)-3-sulfamoylphenyl]acetamide] |
| 429 nM | 54 |  | Cc1cccc(CC(=O)Nc2ccc(Oc3cccc(Cl)c3)c(S(N)(=O)=O)c2)n1 [Example 189, N-[4-(3-Chlorophenoxy)-3-sulfamoylphenyl]-2-(6-methylpyridin-2-yl)acetamide] |

Reference: US20180338980A1, “AROMATIC SULFONAMIDE DERIVATIVES” (BAYER PHARMA AKTIENGESELLSCHAFT, priority 2015, published 2018)
